Results as given in US20260285850A1, “SUBSTITUTED OXAZOLIDINONES AND IMIDAZOLINONES AS HERBICIDES” (FMC CORPORATION, priority 2023, published 2026).

How the values were obtained:
Assay type in all cases: in vivo
[1] = tested on: barnyardgrass (Echinochloa crus-galli); experiment: Test A postemergence application, visual injury rating 0-100
How it was run: (§1)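 Rating: visual, day 10, untreated plants as reference, 0 no effect to 100 full control. Plants were in loam-sand and were treated either preemergence via directed soil spray or postemergence at the one- to two-leaf stage.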

[2] = tested on: blackgrass (Alopecurus myosuroides); experiment: as above
How it was run: as §1

[3] = tested on: galium (catchweed bedstraw, Galium aparine); experiment: as above
How it was run: as §1

[4] = tested on: wheat (Triticum aestivum); experiment: as above
How it was run: as §1

[5] = tested on: ryegrass, Italian (italian ryegrass, Lolium multiflorum); experiment: as above
How it was run: as §1

[6] = tested on: horseweed (Erigeron canadensis); experiment: as above
How it was run: as §1

[7] = tested on: soybean (Glycine max); experiment: as above
How it was run: as §1

[8] = tested on: palmer (palmer amaranth, palmer pigweed, Amaranthus palmeri); experiment: as above
How it was run: as §1

[9] = tested on: kochia (Bassia scoparia); experiment: as above
How it was run: as §1

[10] = tested on: ragweed (common ragweed, Ambrosia artemisiifolia); experiment: as above
How it was run: as §1

[11] = tested on: corn (Zea mays); experiment: as above
How it was run: as §1

[12] = tested on: green foxtail (Setaria viridis); experiment: as above
How it was run: as §1

[13] = tested on: oat, wild (wild oat, Avena fatua); experiment: as above
How it was run: as §1

[14] = tested on: barnyardgrass (Echinochloa crus-galli); experiment: Test A preemergence soil spray, visual injury rating 0-100; conditions: 10 days
How it was run: as §1

[15] = tested on: blackgrass (Alopecurus myosuroides); experiment: as above; conditions: 10 days
How it was run: as §1

[16] = tested on: wheat (Triticum aestivum); experiment: as above; conditions: 10 days
How it was run: as §1

[17] = tested on: ryegrass, Italian (italian ryegrass, Lolium multiflorum); experiment: as above; conditions: 10 days
How it was run: as §1

[18] = tested on: soybean (Glycine max); experiment: as above; conditions: 10 days
How it was run: as §1

[19] = tested on: palmer (palmer amaranth, palmer pigweed, Amaranthus palmeri); experiment: as above; conditions: 62 g ai/ha, 10 days, 0 = no effect, 100 = complete control
How it was run: as §1

[20] = tested on: kochia (Bassia scoparia); experiment: as above; conditions: 10 days
How it was run: as §1

[21] = tested on: ragweed (common ragweed, Ambrosia artemisiifolia); experiment: as above; conditions: 10 days
How it was run: as §1

[22] = tested on: corn (Zea mays); experiment: as above; conditions: 16 g ai/ha, 0 to 100 scale, 10 days
How it was run: as §1

[23] = tested on: green foxtail (Setaria viridis); experiment: as above; conditions: 10 days
How it was run: as §1

[24] = tested on: oat, wild (wild oat, Avena fatua); experiment: as above; conditions: 10 days
How it was run: as §1

[25] = tested on: ducksalad (Heteranthera limosa); experiment: Test B flooded paddy test, visual plant response rating 0-100; conditions: 250 g ai/ha, Flood, applied to paddy water, evaluated after 13 days
How it was run: (§2)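 Greenhouse, 13 d. Seedlings at 2-leaf stage, pots flooded to 3 cm, compound delivered into floodwater, water level held constant. Evaluated visually relative to controls.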

[26] = tested on: barnyardgrass (Echinochloa crusgalli); experiment: as above; conditions: 250 g ai/ha, Flood, applied to paddy water, evaluated after 13 days
How it was run: as §2

[27] = tested on: rice (Oryza sativa); experiment: as above; conditions: 250 g ai/ha, Flood, applied to paddy water, evaluated after 13 days
How it was run: as §2

[28] = tested on: sedge, umbrella (small-flower umbrella sedge, Cyperus difformis); experiment: as above; conditions: 250 g ai/ha, Flood, applied to paddy water, evaluated after 13 days
How it was run: as §2

[29] = 62 g ai/ha, postemergence, 10 days, 0 = no effect, 100 = complete control
[30] = Postemergence, 16 g ai/ha, greenhouse 10 days, 0 no effect, 100 complete control
[31] = 62 g ai/ha, 0 = no effect, 100 = complete control

CCOC(=O)C1=CCC(NC(=O)C2(C)CN(c3cc(F)cc(Cl)c3)C(=O)O2)C1 (centres unmarked) [Compound 133]
Barnyardgrass plant response rating (0-100) [1, 29]: 100 | Barnyardgrass plant response rating (0 to 100 scale) [1, 30]: 100 | Blackgrass plant response rating (0-100) [2, 29]: 90 | Blackgrass plant response rating (0 to 100 scale) [2, 30]: 70 | Galium plant response rating (0-100) [3, 29]: 70 | Galium plant response rating (0 to 100 scale) [3, 30]: 60 | Wheat plant response rating (0-100) [4, 29]: 90 | Wheat plant response rating (0 to 100 scale) [4, 30]: 80 | Ryegrass, Italian plant response rating (0-100) [5, 29]: 90 | Ryegrass, Italian plant response rating (0 to 100 scale) [5, 30]: 60 | Horseweed plant response rating (0-100) [6, 29]: 80 | Horseweed plant response rating (0 to 100 scale) [6, 30]: 0 | Soybean plant response rating (0-100) [7, 29]: 70 | Soybean plant response rating (0 to 100 scale) [7, 30]: 60 | Pigweed, Palmer plant response rating (0-100) [8, 29]: 90 | Pigweed, Palmer plant response rating (0 to 100 scale) [8, 30]: 90 | Kochia plant response rating (0-100) [9, 29]: 90 | Kochia plant response rating (0 to 100 scale) [9, 30]: 80 | Ragweed plant response rating (0-100) [10, 29]: 70 | Ragweed plant response rating (0 to 100 scale) [10, 30]: 30 | Corn plant response rating (0-100) [11, 29]: 100 | Corn plant response rating (0 to 100 scale) [11, 30]: 100 | Foxtail, Green plant response rating (0-100) [12, 29]: 90 | Foxtail, Green plant response rating (0 to 100 scale) [12, 30]: 90 | Oat, Wild plant response rating (0-100) [13, 29]: 70 | Oat, Wild plant response rating (0 to 100 scale) [13, 30]: 40 | Barnyardgrass plant response rating ([14]; 16 g ai/ha, 0 to 100 scale): 0 | Barnyardgrass plant response rating (0-100) [14, 31]: 80 | Blackgrass plant response rating ([15]; 16 g ai/ha, 0 to 100 scale): 0 | Blackgrass plant response rating (0-100) [15, 31]: 20 | Wheat plant response rating ([16]; 16 g ai/ha, 0 to 100 scale): 0 | Wheat plant response rating (0-100) [16, 31]: 90 | Ryegrass, Italian plant response rating ([17]; 16 g ai/ha, 0 to 100 scale): 10 | Ryegrass, Italian plant response rating (0-100) [17, 31]: 80 | Soybean plant response rating ([18]; 16 g ai/ha, 0 to 100 scale): 0 | Soybean plant response rating (0-100) [18, 31]: 0 | Pigweed, Palmer plant response rating (0-100) [19]: 90 | Kochia plant response rating ([20]; 16 g ai/ha, 0 to 100 scale): 0 | Kochia plant response rating (0-100) [20, 31]: 20 | Ragweed plant response rating ([21]; 16 g ai/ha, 0 to 100 scale): 0 | Ragweed plant response rating (0-100) [21, 31]: 0 | Corn plant response rating [22]: 0 | Foxtail, Green plant response rating ([23]; 16 g ai/ha, 0 to 100 scale): 0 | Foxtail, Green plant response rating (0-100) [23, 31]: 90 | Oat, Wild plant response rating ([24]; 16 g ai/ha, 0 to 100 scale): 0 | Oat, Wild plant response rating (0-100) [24, 31]: 0 | Plant response rating, Ducksalad (0 to 100 scale, 0 is no effect and 100 is complete control) [25]: 85 | Plant response rating, Barnyardgrass (0 to 100 scale, 0 is no effect and 100 is complete control) [26]: 95 | Plant response rating, Rice (0 to 100 scale, 0 is no effect and 100 is complete control) [27]: 85 | Plant response rating, Sedge, Umbrella (0 to 100 scale, 0 is no effect and 100 is complete control) [28]: 98
